Experimental data taken from patent US9976141B2, “Compositions and methods for inhibiting gene expression of Hif2alpha” (Arrowhead Madison Inc., priority 2015, dated 2018).

System: human (tumor) Hif2α (EPAS1) mRNA
Test: Hif2α knockdown in orthotopic RCC tumor bearing mice, single injection of RNAi trigger-delivery polymer conjugate, RT-qPCR (Table 7)
Assay type: in vivo
Settings: RNAi trigger 80 μg, polymer 126 400 μg; single tail vein injection; relative to isotonic glucose
Procedure: A pCR3.1 expression vector expressing the reporter gene secreted alkaline phosphatase (SEAP) under the CMV promoter was prepared by directional cloning of the SEAP coding sequence PCR amplified from Clontech's pSEAP2-basic vector. Convenient restriction sites were added onto primers used to amplify the SEAP coding sequence for cloning into the pCR3.1 vector (Invitrogen). The resultant construct pCR3-SEAP was used to create a SEAP-expressing A498 ccRCC cell line. Briefly, pCR3-SEAP plasmid was transfected into A498 ccRCC cells by electroporation following manufacturer's recommendation. Stable transfectants were selected by G418 resistance. Selected A498-SEAP clones were evaluated for SEAP expression and integration stability.
Female athymic nude mice were anesthetized with ˜3% isoflourane and placed in the right lateral decubitus position. A small, 0.5-1 cm, longitudinally abdominal incision in the left flank was made. Using a moist cotton swab, the left kidney was lifted out of the peritoneum and gently stabilized. Just before injection, a 1.0 ml syringe was filled with the cell/Matrigel mixture and a 27 gauge needle catheter was attached to the syringe tip. The filled syringe was then attached to a syringe pump (Harvard Apparatus, model PHD2000) and primed to remove air. The tip of a 27-gauge needle catheter attached to a syringe was inserted just below the renal capsule near the caudal pole and the tip of the needle was then carefully advanced cranially along the capsule 3-4 mm. A 10 μl aliquot of 2:1 (vol:vol) cell/matrigel mixture containing about 300,000 cells was slowly injected into the kidney parenchyma using a syringe pump. The needle was left in the kidney for 15-20 seconds to ensure the injection was complete. The needle was then removed from the kidney and a cotton swab was placed over the injection site for 30 seconds to prevent leakage of the cells or bleeding. The kidney was then gently placed back into the abdomen and the abdominal wall was closed. Serum was collected every 7-14 days after implantation to monitor tumor growth using a commercial SEAP assay kit. For most studies, tumor mice were used 5-6 weeks after implantation, when tumor measurements were typically around 4-8 mm.
RGD targeted HiF2α-RNAi trigger delivery conjugates. Delivery polymers were modified using RGD-PEG-HyNic, RGD-PEG-ACit-PNP, or RDG-PEG-FCitFP-TFP and PEG-dipeptide modifying agents. The indicated amount of polymer 126 or 100A polymer was modified with 8×PEG12-ACit-PABC-PNP/0.5× aldehyde-PEG24-FCit-PABC-PNP (with RGD mimic #1-PEG-HyNic using protocol #1) and the indicated amount of the indicated Hif2α RNAi trigger. Polymer 064 was modified according to protocol 7. Kidney RCC tumor-bearing mice were generated as described and treated with a single tail vein injection of isotonic glucose (G1) or the indicated Hif2α RNAi trigger-delivery polymer conjugate. Mice were euthanized at the indicated time after injection and total RNA was prepared from kidney tumor using Trizol reagent following manufacturer's recommendation. Relative HiF2α mRNA levels were determined by RT-qPCR as described below and compared to mice treated with delivery buffer (isotonic glucose) only.
In preparation for quantitative PCR, total RNA was isolated from tissue samples homogenized in TriReagent (Molecular Research Center, Cincinnati, Ohio) following the manufacturer's protocol. Approximately 500 ng RNA was reverse-transcribed using the High Capacity cDNA Reverse Transcription Kit (Life Technologies). For human (tumor) Hif2α (EPAS1) expression, pre-manufactured TaqMan gene expression assays for human Hif2α (Catalog #4331182) and CycA (PPIA) Catalog #: 4326316E) were used in biplex reactions in triplicate using TaqMan Gene Expression Master Mix (Life Technologies) or VeriQuest Probe Master Mix (Affymetrix). […]

| Substance | Relative Expression day 4 (Hif2α mRNA in kidney tumor) |
| --- | --- |
| AD01027 (antisense TAAAUCGUUACGUUGACAGTT; sense CUGUCAACGUAACGAUUUAT; Hif2alpha RNAi agent antisense strand; modified_base 2,4,6,8,10,12,14,16,18 /mod_base = “2′-deoxy-2′-fluoro corresponding nucleoside”; modified_base 3,5,9,11,13,15,17,19 /mod_base = “2′-O-methyl corresponding nucleoside”; modified_base 7 /mod_base = “2′-3′ seco corresponding nucleotide”; modified_base 21 /mod_base = “5′-phosphorothioate corresponding nucleotide”; Hif2alpha RNAi agent sense strand; modified_base 1,3,5,7,9,11,13,15,17,19 /mod_base = “2′-deoxy-2′-fluoro corresponding nucleoside”; modified_base 2,4,6,8,10,12,14,16,18 /mod_base = “2′-O-methyl corresponding nucleoside”; modified_b) | 0.92 |
| AD01028 (antisense TAAAUCGUUACGUUGACAGTT; sense CUGUCAACGUAACGAUUUAT; Hif2alpha RNAi agent antisense strand; modified_base 2,4,6,8,10,12,14,16,18 /mod_base = “2′-deoxy-2′-fluoro corresponding nucleoside”; modified_base 3,5,7,9,11,13,15,17,19 /mod_base = “2′-O-methyl corresponding nucleoside”; modified_base 21 /mod_base = “5′-phosphorothioate corresponding nucleotide”; Hif2alpha RNAi agent sense strand; modified_base 1,3,5,7,9,11,13,15,17,19 /mod_base = “2′-deoxy-2′-fluoro corresponding nucleoside”; modified_base 2,4,6,8,10,12,14,16,18 /mod_base = “2′-O-methyl corresponding nucleoside”; modified_base 20 /mod_base = “3′-3′-linked nucleotide”; modified_base 1 /mo) | 0.39 |
| AD01029 (antisense TUUCAUGAAAUCGUUACGUTT; sense ACGUAACGAUUUCAUGAAAT; Hif2alpha RNAi agent antisense strand; modified_base 2,4,8,10,12,14,16,18 /mod_base = “2′-deoxy-2′-fluoro corresponding nucleoside”; modified_base 3,5,7,9,11,13,15,17,19 /mod_base = “2′-O-methyl corresponding nucleoside”; modified_base 6 /mod_base = “2′-3′ seco corresponding nucleotide”; modified_base 21 /mod_base = “5′-phosphorothioate corresponding nucleotide”; Hif2alpha RNAi agent sense strand; modified_base 1,3,5,7,9,11,13,15,17,19 /mod_base = “2′-deoxy-2′-fluoro corresponding nucleoside”; modified_base 2,4,6,8,10,12,14,16,18 /mod_base = “2′-O-methyl corresponding nucleoside”; modified_b) | 0.94 |
| AD01030 (antisense TUUCAUGAAAUCGUUACGUTT; sense ACGUAACGAUUUCAUGAAAT; Hif2alpha RNAi agent antisense strand; modified_base 2,4,6,8,10,12,14,16,18 /mod_base = “2′-deoxy-2′-fluoro corresponding nucleoside”; modified_base 3,5,9,11,13,15,17,19 /mod_base = “2′-O-methyl corresponding nucleoside”; modified_base 7 /mod_base = “2′-3′ seco corresponding nucleotide”; modified_base 21 /mod_base = “5′-phosphorothioate corresponding nucleotide”; Hif2alpha RNAi agent sense strand; modified_base 1,3,5,7,9,11,13,15,17,19 /mod_base = “2′-deoxy-2′-fluoro corresponding nucleoside”; modified_base 2,4,6,8,10,12,14,16,18 /mod_base = “2′-O-methyl corresponding nucleoside”; modified_b) | 0.47 |
| AD01032 (antisense TAAGUUAAGCUCCCAUACATT; sense UGUAUGGGAGCUUAACUUAT; Hif2alpha RNAi agent antisense strand; modified_base 2,4,8,10,12,14,16,18 /mod_base = “2′-deoxy-2′-fluoro corresponding nucleoside”; modified_base 3,5,7,9,11,13,15,17,19 /mod_base = “2′-O-methyl corresponding nucleoside”; modified_base 6 /mod_base = “2′-3′ seco corresponding nucleotide”; modified_base 21 /mod_base = “5′-phosphorothioate corresponding nucleotide”; Hif2alpha RNAi agent sense strand; modified_base 1,3,5,7,9,11,13,15,17,19 /mod_base = “2′-deoxy-2′-fluoro corresponding nucleoside”; modified_base 2,4,6,8,10,12,14,16,18 /mod_base = “2′-O-methyl corresponding nucleoside”; modified_b) | 1.00 |
| AD01033 (antisense TAAGUUAAGCUCCCAUACATT; sense UGUAUGGGAGCUUAACUUAT; Hif2alpha RNAi agent antisense strand; modified_base 2,4,6,8,10,12,14,16,18 /mod_base = “2′-deoxy-2′-fluoro corresponding nucleoside”; modified_base 3,5,9,11,13,15,17,19 /mod_base = “2′-O-methyl corresponding nucleoside”; modified_base 7 /mod_base = “2′-3′ seco corresponding nucleotide”; modified_base 21 /mod_base = “5′-phosphorothioate corresponding nucleotide”; Hif2alpha RNAi agent sense strand; modified_base 1,3,5,7,9,11,13,15,17,19 /mod_base = “2′-deoxy-2′-fluoro corresponding nucleoside”; modified_base 2,4,6,8,10,12,14,16,18 /mod_base = “2′-O-methyl corresponding nucleoside”; modified_b) | 1.08 |
| AD01034 (antisense TAAGUUAAGCUCCCAUACATT; sense UGUAUGGGAGCUUAACUUAT; Hif2alpha RNAi agent antisense strand; modified_base 2,4,6,8,10,12,14,16,18 /mod_base = “2′-deoxy-2′-fluoro corresponding nucleoside”; modified_base 3,5,7,9,11,13,15,17,19 /mod_base = “2′-O-methyl corresponding nucleoside”; modified_base 21 /mod_base = “5′-phosphorothioate corresponding nucleotide”; Hif2alpha RNAi agent sense strand; modified_base 1,3,5,7,9,11,13,15,17,19 /mod_base = “2′-deoxy-2′-fluoro corresponding nucleoside”; modified_base 2,4,6,8,10,12,14,16,18 /mod_base = “2′-O-methyl corresponding nucleoside”; modified_base 20 /mod_base = “3′-3′-linked nucleotide”; modified_base 1 /mo) | 0.35 |
